“Also recorded” adds a separate entry of the source.
What was measured:
Type in all cases: biochemical
GalNAc-T4 = target: T1, GalNAc-T4 (Homo sapiens, UniProt Q8N4A0); assay: Transferase assay / Michaelis-Menten kinetics of GalNAc-T4; conditions: for Catalytic efficiency (Vmax/Km) / Activity of GalNAc-T4 on peptide / glycosylation: GalNAc-T4; for Activity of GalNAc-T4 on peptide / glycosylation: over a range of peptide concentrations, in words
T1 construct: amino acid residues 36–578 of the human GalNAc-T4; histidine tag (C); made in house; host or cells: Pichia pastoris SMD1168 (pPICZαA, secreted)
Procedure: (§1) Specific activity determinations: GalNAc-T glycosylation reactions against (glyco)peptides 1–3 were performed with 75 mM sodium cacodylate, pH 6.5, 1 mM 2-mercaptoethanol, 10 mM MnCl2, 0.25 mM [^3H]-radiolabeled UDP-GalNAc (~6 × 10^8 DPM/µmole, American Radiolabeled Chemicals Inc.), and 1.4 mM (~1.25 mg/ml) of (glyco)peptide (from 4 mM stock in 1 mM TRIS, pH ~7) and varying concentrations (0.01 to 0.5 µM) of transferase (determined by OD280), giving a final reaction volumes of 20 µl in 100 µl capped Eppendorf tubes. Reactions were incubated at 37 °C in a thermostated microplate shaker (Taitec Microincubator M-36) and quenched at the appropriate reaction time by the addition of 20 µl of 250 mM EDTA and placed on ice prior to final workup. Typically, for each transferase, glycosylation reactions were performed at the same time with all three (glyco)peptide substrates (including a no peptide control) using the same batch of transferase and the same UDP-[^3H]-GalNAc stock. Before performing time course experiments, the relative activity of each transferase was determined by trial and error against all three peptides to determine the optimal transferase concentration or incubation time that gave no more than 10% peptide glycosylation against the best substrate. Final time course experiments typically consisted of incubation times of 10, 20, and 30, or 30, 60, and 90 or 120 min (depending on activity) and were performed at least twice. Most transferases were also characterized at two different enzyme concentrations (0.01–0.03 and 0.2–0.5 µM) and the results combined. After quenching the reaction and diluting to 4 ml, free UDP and non-hydrolyzed UDP-GalNAc were removed by passage over a Dowex 1 × 8 anion exchange resin (~3 ml column). Total UDP-[^3H]-GalNAc utilization (transfer to peptide substrate and transfer to water, i.e, hydrolysis) was determined by difference after scintillation counting (Beckman LS5801 scintillation counter) 1/20 of the sample before and after passage over Dowex 1 × 8. The extent of [^3H]-GalNAc transfer to peptide and the extent of hydrolysis was determined by Sephadex G10 gel filtration analysis, typically for the longest reaction time point, as previously described. Example gel filtration chromatograms are given in Supplementary Fig. 12. Significant hydrolysis was only observed for GalNAc-T4, which was corrected for in determining its specific activity. Specific activity was obtained by calculating at each individual data time point (of the combined time course plots, Fig. 4b), an individual-specific activity, which was then averaged to obtain the overall average specific activity (and standard deviation). Specific activity is reported as nmol of glycopeptide product formed per min, per pmol of enzyme. Substrate activity ratios (i.e., substrate ratios 2/1, 3/1, and 3/2) were also obtained at each individual time point and averaged (with standard deviation). […] Note that the Microsoft Excel least squares fitting function LINEST was used to obtain the linear plots shown in Fig. 4b while fixing the y intercept to zero. Note that the specific activity calculated from the least square slope differed slightly (less than 10%) from that determined from the average of the individual time points.
(§2) Detailed enzyme kinetics on GalNAc-T4, GalNAc-T2, the GalNAc-T2 triple mutant and GalNAc-T2 chimera 3: Glycosylation reactions were performed as described above using a fixed enzyme concentration (0.06 µM for GalNAc-T4, and 0.02 µM for GalNAc-T2 and its linker constructs) with varying peptide concentrations (typically 45, 90, 180, 350, 700, 1400, and 2000 μM). Incubation times (10–90 min) were chosen such that no more than 30% of the UDP-GalNAc donor was depleted while typically giving less than 10% peptide glycosylation, after correction for UDP-GalNAc hydrolysis described above. Specific activities were obtained from one to two individual incubation time points performed in two–three separate experiments. […]

GalNAc-T2 = target: T2, GalNAc-T2 (Homo sapiens, UniProt Q10471); assay: Transferase assay / Michaelis-Menten kinetics of GalNAc-T2; conditions: for Vmax / Km: GalNAc-T2 (0.02 µM), pH 6.5 cacodylate, 37 °C, 0.25 mM UDP-[3H]-GalNAc, Michaelis-Menten fit (1/y weighting), ± standard deviation; for Vmax: 10 mM MnCl2, scintillation counting; for Catalytic efficiency (Vmax/Km): errors estimated from the largest percent error of Vmax or Km
T2 construct: the previous reported template pPICZαAgalnact2 (K75-Q571); made in house; host or cells: Pichia pastoris (pPICZαA)
Procedure: as §1, §2

[1] = target: T3, GalNAc-T2 (triple mutant, R438A-D444A-F447A) (Homo sapiens, UniProt Q10471, D444A/F447A/R438A); assay: Transferase assay / Michaelis-Menten kinetics of GalNAc-T2 triple mutant; conditions: for Vmax / Km: Triple Mutant (0.02 µM), pH 6.5 cacodylate, 37 °C, 0.25 mM UDP-[3H]-GalNAc, Michaelis-Menten fit, ± standard deviation; for Vmax: 10 mM MnCl2; for Catalytic efficiency (Vmax/Km): Triple Mutant, errors estimated from the largest percent error of Vmax or Km
T3 construct: the previous reported template pPICZαAgalnact2 (K75-Q571); made in house; host or cells: Pichia pastoris SMD1168 (pPICZαA)
Procedure: as §1, §2

[2] = target: T4, GalNAc-T2-t4Flexible linker (Chimera 3) (Homo sapiens, UniProt Q10471, A446W/D441E/D444P/E436N/F447H/H442D/I445G/Q443R/R438H); assay: Transferase assay / Michaelis-Menten kinetics of GalNAc-T2 chimera 3; conditions: for Vmax / Km: Chimera 3 (0.02 µM), pH 6.5 cacodylate, 37 °C, 0.25 mM UDP-[3H]-GalNAc, Michaelis-Menten fit, ± standard deviation; for Vmax: 10 mM MnCl2; for Catalytic efficiency (Vmax/Km): Chimera 3, errors estimated from the largest percent error of Vmax or Km
T4 construct: made in house; host or cells: Pichia pastoris SMD1168 (pPICZαA)
Procedure: as §1, §2

GalNAc-T2 chimeras 1–3 = assay: Specific activity / glycosylation preference of GalNAc-T2 chimeras 1-3; conditions: in words
Procedure: (§3) Specific activity determinations: GalNAc-T glycosylation reactions against (glyco)peptides 1–3 were performed with 75 mM sodium cacodylate, pH 6.5, 1 mM 2-mercaptoethanol, 10 mM MnCl2, 0.25 mM [^3H]-radiolabeled UDP-GalNAc (~6 × 10^8 DPM/µmole, American Radiolabeled Chemicals Inc.), and 1.4 mM (~1.25 mg/ml) of (glyco)peptide (from 4 mM stock in 1 mM TRIS, pH ~7) and varying concentrations (0.01 to 0.5 µM) of transferase (determined by OD280), giving a final reaction volumes of 20 µl in 100 µl capped Eppendorf tubes. […] Before performing time course experiments, the relative activity of each transferase was determined by trial and error against all three peptides to determine the optimal transferase concentration or incubation time that gave no more than 10% peptide glycosylation against the best substrate. […] Total UDP-[^3H]-GalNAc utilization (transfer to peptide substrate and transfer to water, i.e, hydrolysis) was determined by difference after scintillation counting (Beckman LS5801 scintillation counter) 1/20 of the sample before and after passage over Dowex 1 × 8. The extent of [^3H]-GalNAc transfer to peptide and the extent of hydrolysis was determined by Sephadex G10 gel filtration analysis, typically for the longest reaction time point, as previously described. […]

[3] = test system: GalNAc-T2 chimera 1 and 2; assay: Specific activity of GalNAc-T2 chimera 1 and 2; conditions: 1.4 mM, in words
Procedure: as §3

T1 sequence (Q8N4A0 36-578): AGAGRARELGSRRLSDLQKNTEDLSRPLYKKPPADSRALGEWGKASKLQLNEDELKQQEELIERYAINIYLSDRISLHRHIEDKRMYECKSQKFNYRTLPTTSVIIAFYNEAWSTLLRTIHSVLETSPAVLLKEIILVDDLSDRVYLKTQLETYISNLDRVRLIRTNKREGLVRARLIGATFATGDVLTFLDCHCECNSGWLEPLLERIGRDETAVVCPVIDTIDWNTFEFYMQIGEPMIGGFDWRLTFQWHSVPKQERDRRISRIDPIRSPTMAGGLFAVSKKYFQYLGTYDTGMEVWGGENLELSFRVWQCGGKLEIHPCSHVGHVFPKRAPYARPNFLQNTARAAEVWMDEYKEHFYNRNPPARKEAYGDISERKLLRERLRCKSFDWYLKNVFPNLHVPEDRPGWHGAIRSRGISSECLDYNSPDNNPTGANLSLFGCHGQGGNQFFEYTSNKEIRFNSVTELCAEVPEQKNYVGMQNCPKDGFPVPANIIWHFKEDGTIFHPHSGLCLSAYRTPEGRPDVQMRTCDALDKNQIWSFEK
T3 sequence (Q10471 75-571 R438A/D444A/F447A): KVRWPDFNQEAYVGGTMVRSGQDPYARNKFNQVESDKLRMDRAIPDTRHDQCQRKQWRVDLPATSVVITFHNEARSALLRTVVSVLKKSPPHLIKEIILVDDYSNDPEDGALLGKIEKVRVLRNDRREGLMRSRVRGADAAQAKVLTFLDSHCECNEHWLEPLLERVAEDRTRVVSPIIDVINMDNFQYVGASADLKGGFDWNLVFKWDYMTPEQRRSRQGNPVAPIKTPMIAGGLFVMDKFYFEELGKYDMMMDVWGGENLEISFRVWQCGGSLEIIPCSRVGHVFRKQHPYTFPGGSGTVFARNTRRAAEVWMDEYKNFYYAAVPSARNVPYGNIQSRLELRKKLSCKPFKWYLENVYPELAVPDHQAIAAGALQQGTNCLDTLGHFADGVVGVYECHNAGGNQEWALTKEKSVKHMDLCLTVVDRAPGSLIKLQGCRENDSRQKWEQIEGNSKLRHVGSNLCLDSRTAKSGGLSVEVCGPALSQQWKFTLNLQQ
T2 sequence (Q10471 75-571): as the sequence (Q10471 75-571 R438A/D444A/F447A) above, with A364R, A370D, A373F counted along it
T4 sequence (Q10471 75-571 E436N/R438H/D441E/H442D/Q443R/D444P/I445G/A446W/F447H): as the sequence (Q10471 75-571 R438A/D444A/F447A) above, with E362N, A364H, D367E, H368D, Q369R, A370P, I371G, A372W, A373H counted along it

Substance	Activity of GalNAc-T4 on peptide / glycosylation (GalNAc-T4)	Vmax (GalNAc-T2)	Km (GalNAc-T2)	Catalytic efficiency (Vmax/Km) (GalNAc-T2; GalNAc-T2)	substrate preference of GalNAc-T2, higher substrate concentrations (GalNAc-T2; in words)	Vmax [1]	Km [1]	Catalytic efficiency (Vmax/Km) [1]	Vmax [2]	Km [2]	Catalytic efficiency (Vmax/Km) [2]	further results
GAT*GAGAGAGTTPGPG [Peptide 3, monoglycopeptide GAT*…, T* denotes the Thr-O-GalNAc moiety]	glycosylated selectively	3.79 ± 0.34 mM/(nmole*min)	750 ± 130 µM	5.03 ± 1.8 nmol/min	nearly equal preferences	2.82 ± 0.10 mM/(nmole*min)	570 ± 50 µM	4.94 ± 0.9 nmol/min	3.69 ± 0.29 mM/(nmole*min)	990 ± 160 µM	3.73 ± 1.2 nmol/min	Catalytic efficiency (Vmax/Km) (GalNAc-T4; Fig. 2a and text): ~ 75 (nmole min)^−1; Km (GalNAc-T4; Fig. 2a and text, GalNAc-T4 (0.06 µM), Michaelis-Menten fit): ~40 µM; Vmax (GalNAc-T4; Supplementary Table 2, GalNAc-T4 (0.06 µM), pH 6.5 cacodylate, 37 °C, 0.25 mM UDP-[3H]-GalNAc, 10 mM MnCl2, corrected for UDP-GalNAc hydrolysis, ± standard deviation): 3.09± 0.25 mM/(nmole*min); Km (GalNAc-T4; Supplementary Table 2, GalNAc-T4 (0.06 µM), pH 6.5 cacodylate, 37 °C, 0.25 mM UDP-[3H]-GalNAc, ± standard deviation): 41 ± 18 µM; Catalytic efficiency (Vmax/Km) (GalNAc-T4; Supplementary Table 2, errors estimated from the largest percent error of Vmax or Km): 75.2 ± 34 nmol/min; specific activity and kinetic parameters against monoglycopeptide 3, change (GalNAc-T2 chimeras 1–3): remained relative constant
AGAGTTPGPGAGAT*GA [Peptide 2, monoglycopeptide …*GA, T* denotes the Thr-O-GalNAc moiety]	imperceptibly glycosylated; also recorded: too low to determine their kinetic constants; also recorded: largely unglycosylated	3.12 ± 0.07 mM/(nmole*min)	180 ± 10 µM	17.0 ± 2.3 nmol/min	nearly equal preferences	1.80 ± 0.06 mM/(nmole*min)	400 ± 40 µM	4.54 ± 0.9 nmol/min	1.35 ± 0.11 mM/(nmole*min)	700 ± 140 µM	1.93 ± 0.8 nmol/min	increase in catalytic efficiency for monoglycopeptide 2 over monoglycopeptide 3 (GalNAc-T2; GalNAc-T2, ratio 2 over 3): over threefold; Km of monoglycopeptide 2 compared to monoglycopeptide 3 (GalNAc-T2; GalNAc-T2, ratio, in words): ~ fourfold lower; substrate preference of GalNAc-T2, low substrate concentrations (GalNAc-T2; low substrate concentrations, in words): high preference for monoglycopeptide 2 at low substrate concentrations; change in kinetic parameters against monoglycopeptide 2 ([1]; triple mutant, in words): decrease in Vmax and increase in Km; change in kinetic parameters (Vmax, Km) ([2]; chimera 3, in words): changes in Vmax and Km; specific activity against monoglycopeptide 2, change [3]: decrease in the observed specific activity

Reference: paper PMC5716993, “The interdomain flexible linker of the polypeptide GalNAc transferases dictates their long-range glycosylation preferences” (Nature Communications, 2017)
